Assay: xn = mol fraction of the nth substance listed
Conditions: 101 kPa

CCCCO + CCCCCCCCCCCC[N+](C)(C)Cc1ccccc1.O=S(=O)([N-]S(=O)(=O)C(F)(F)F)C(F)(F)F
x2 = 0
Conditions | viscosity [mPa·s]
303.15 K | 2.23
318.15 K | 1.56
323.15 K | 1.42
328.15 K | 1.27
333.15 K | 1.11
338.15 K | 1.01

CCCCCCCCCCCC[N+](C)(C)Cc1ccccc1.O=S(=O)([N-]S(=O)(=O)C(F)(F)F)C(F)(F)F + CCCCO
viscosity [mPa·s]
Conditions | x1 = 0.1507 | x1 = 0.3015 | x1 = 0.4494 | x1 = 0.594 | x1 = 0.7485 | x1 = 0.9164 | x1 = 1
298.15 K | 15.3 | 43.6 | 103 | 208 | 505 | 1066 | –
303.15 K | 12.4 | – | 78 | 153 | 362 | 748 | 970
308.15 K | 10.4 | – | 60.1 | 115 | 266 | 532 | –
313.15 K | 8.75 | 22 | 47.2 | 86.1 | – | 386 | 485
318.15 K | – | 18.1 | – | 69.1 | 150 | 285 | 351
323.15 K | 6.4 | 14.9 | 30.4 | 57.2 | 117 | 210 | 261
328.15 K | 5.54 | 12.5 | 24.9 | 46.8 | 91.6 | – | 197
333.15 K | – | 10.5 | – | – | 76.8 | 125 | 152
338.15 K | 4.24 | 8.87 | 17.2 | 33.8 | – | 99 | –
343.15 K | 3.75 | 7.58 | 14.6 | 29 | – | 79.2 | 91.8
348.15 K | 3.43 | 6.53 | 12.2 | – | 46.3 | 68 | 77.5

c1ccsc1 + N#C[C-](C#N)C#N.OCC[n+]1ccccc1
x2 = 0
Conditions | viscosity [mPa·s]
293.15 K | 0.653
298.15 K | 0.615
308.15 K | 0.545
313.15 K | 0.518
318.15 K | 0.491
323.15 K | 0.464
328.15 K | 0.441
338.15 K | 0.4
343.15 K | 0.382

N#C[C-](C#N)C#N.OCC[n+]1ccccc1 + c1ccsc1
viscosity [mPa·s]
Conditions | x1 = 0.4042 | x1 = 0.4996 | x1 = 0.6 | x1 = 0.7041 | x1 = 0.8044 | x1 = 0.901 | x1 = 1
293.15 K | 19.9 | 29.5 | 40.2 | – | 67 | 91.2 | –
298.15 K | 16.3 | 23.6 | 31.8 | 41.2 | 51.6 | – | 97
303.15 K | 13.6 | – | 25.5 | 32.7 | 40.1 | – | 71.8
308.15 K | 11.5 | 15.8 | 20.7 | 26.1 | 31.6 | 39.6 | 54.6
313.15 K | 10 | 13.4 | 17.2 | 21.2 | 25.6 | 31.6 | 42.3
318.15 K | 8.78 | 11.4 | 14.4 | 17.7 | – | 25.7 | 34
323.15 K | 7.81 | 9.87 | – | 14.8 | 17.6 | 21.3 | 27.8
328.15 K | 7.01 | 8.67 | 10.6 | – | 14.8 | – | 22.9
333.15 K | 6.15 | – | – | 10.9 | 12.8 | 15.2 | 19.3
338.15 K | – | – | 7.86 | – | 11.1 | 13.1 | 16.4
343.15 K | 4.68 | – | 6.99 | 8.4 | – | 11.5 | 14
348.15 K | 4.17 | 5.12 | 6.2 | 7.5 | 8.89 | 10.3 | 12.3
